Test results from patent US5078986A, “Method for enhancing magnetic resonance imaging using an image altering agent containing an excess of chelating agent” (Mallinckrodt Medical, Inc., priority 1990, dated 1992).
“Also recorded” adds a separate entry of the source. Where two headings read alike, the source gives them in different places.

Experiments:
[1] = tested on: mice; assay: Acute intravenous toxicity in mice (Example 7); assay type: in vivo, Swiss CF-1 albino mouse
Description: The acute intravenous toxicity of disodium (diethylenetriaminepentaacetato)gadolinium (III) (composition C of Example 1) was studied.
A total of 16 Swiss CF-1 albino mice (8 male, 22.0-25.6 g; 8 female, 18.2-24.1 g) were used. Picric acid markings were used for individual identification.
The protocol of Example 4 was used. Groups of 2-4 mice, with sexes equally represented, received single intravenous doses of the test substance according to the following schedule: […]

[2] = tested on: tissue and blood protons of rabbits; assay: Tissue and blood proton T1 and T2 values in rabbits (Example 9); assay type: in vivo, rabbit; details: 0.51 mmol/kg i.v., 15 min
Method: The EKG was recorded with surface electrodes.

[3] = tested on: normal and infarcted myocardial tissue, blood; assay: Proton T1 values of myocardium and blood in dogs with coronary occlusion (Example 10); assay type: in vivo, dog; details: for Blood T1: before 510
[4] = tested on: excised hearts (normal and infarcted tissues); assay: NMR imaging of excised hearts of dogs with coronary occlusion (Example 10); assay type: in vivo, dog; details: 2 ml/kg (0.34 mmol Gd(III)/kg), 10 min
Method: Selective catheterization of the left anterior descending coronary artery or circumflex coronary artery was achieved via a percutaneous intracarotid artery approach in anesthetized dogs. Gelfoam plugs were inserted into the coronary artery, via the catheter, in order to produce coronary occlusion. Animals were treated with lidocaine to prevent coronary arrhythmias and morphine to relieve pain.

[5] = tested on: renal medulla and renal cortex; assay: Abdominal NMR imaging in rabbits (Example 11); assay type: in vivo, rabbit; details: 0.3 ml/kg (0.5 mmol Gd(III)/kg) i.v.
Method: Two rabbits were anesthetized and abdominal NMR images were obtained in the General Electric NMR scanner. Rabbits then received intravenous doses of 0.3 ml/kg (0.5 mmol Gd(III)/kg) of the preparation of composition D of Example 1 (GdNa2 DTPA) and additional abdominal NMR images were made over a period of two hours after dosing.

[6] = tested on: mice; assay: Acute intravenous toxicity in mice (Example 4); details: i.v.; for Average Change in Body Wt. of Survivors: 7 days; for LD50: 7-day observation
Method: In addition, the cardiotoxic effects of single bolus intracoronary arterial injections of 4, 8, 16 or 32 mg MnCl2 were evaluated in the isolated perfused rabbit heart (IPRH).
The aqueous vehicle for the suspension of negatively charged liposomes consisted of 0.9% NaCl buffered with 0.003M sodium phosphate, pH 7.4. The lipid concentration was 50 μmol/ml.
A total of 60 mice, 30 males (body weight range of 20-33.5 g) and 30 females (body weight range of 19.1-29.7 g) were used. Fifty of the mice were Swiss ICR, CD-1, obtained from Charles River and ten were Swiss CF-1 obtained from Sasco (Omaha, Nebr.).
The four test substances were administered via the lateral tail vein of the mouse at a rate of 1 ml/min with the following doses given.

[7] = tested on: isolated perfused rabbit heart
[8] = Biodistribution of 54Mn radioactivity in rats (Example 5); assay type: in vivo, Sprague-Dawley rat
Description: A total of forty Sprague-Dawley rats (20 male, 217-295 g; 20 female, 151-208 g; Charles River) were used. Drinking water was provided ad libitum. The animals, 2 males and 2 females per group, were selected randomly from their cages and were identified with indelible ink numbers at tail bases before test substance administration.
Rats were divided into 10 groups consisting of 2 male and 2 female rats per group. […] Immediately after dosing, rats were housed in individual metabolism cages. Ground Purina Laboratory Chow and water were supplied ad libitum to animals sacrificed at 24 and 48 hr after treatment. Rats from both ^54 NmNa2 EDTA and ^54 Mn-L treatment groups were sacrificed by cervical dislocation at 0.5, 2, 4, 24 and 48 hr after treatment, and the following samples were obtained: injection site, blood, liver, lung, spleen, heart, kidneys, salivary gland (submaxillary), brain, bone with marrow, muscle and fat. Urine samples were obtained from animals sacrificed at all intervals of 2 hr or more after injection and fecal samples were obtained from animals sacrificed at 24 and 48 hr after treatment. […] The entire organ weights were determined for the remaining tissues.
Levels of radioactivity in the biological specimens and aliquots of the injected test substances were determined using a gamma scintillation spectrometer (Model 1085, Nuclear Chicago Corp., Des Plaines, Ill.). Results were calculated on a percent dose/organ (or fluid) and a percent dose/g (or ml) basis using an HP-85 desk top computer (Hewlett Packard, Fort Collins, Colo.).
Kinetic data for the elimination of radioactivity from liver, spleen, kidneys, heart and bone with marrow were curve fitted by the peeling and least-square methods, to mono or bi-exponential equations: [formula] Where Ct=% dose/organ in tissue at time t.
Ai=Concentration at time 0 of the line described by each first order term.
Ki=Elimination rate constant for each first-order term.
The half-life (t 1/2) for each elimination phase was calculated as 0.693/Ki. The square of the correlation coefficient (r^2) for each elimination phase was calculated as an indication of variability.

[9] = 32 mg, 0-15 S, only 1 heart, all others had VF

O=C([O-])CN(CCN(CC(=O)[O-])CC(=O)[O-])CCN(CC(=O)[O-])CC(=O)[O-].[Gd+3].[Na+].[Na+] [GdNa2 DTPA, disodium (diethylenetriaminepentaacetato)gadolinium (III)]
Dose up to which no deaths were observed ([1]; mouse, i.v.): 12000 mg/kg
Ataxia ([1]; mouse, in vivo): slight ataxia
Body weight (in words) ([1]; mouse, in vivo): slight reduction in body weight
Respiratory distress ([1]; mouse, in vivo): respiratory distress was observed
Time until all mice appeared normal ([1]; mouse, in vivo, iv): ≤ 6 h
Acute intravenous toxicity profile (in words) ([1]; up to 12.0 g/kg): relatively safe mouse acute intravenous toxicity profile
Mean tissue T1, Fat [2]: 61 ms
Mean tissue T1, Renal Medulla [2]: 130 ms
T1, infarcted regions of heart muscle ([3]; 0.17 mmol Gd(III)/kg i.v., 10 min): 290 ms
T1, normally perfused myocardial tissue ([3]; 0.17 mmol Gd(III)/kg i.v., 10 min, untreated 330): 180 ms
Blood T1 ([3]; 0.34 mmol Gd(III)/kg, 5 minutes): 50 ms
T1, infarcted tissue ([3]; 0.34 mmol Gd(III)/kg, 10 min): 230 ms
T1, normally perfused myocardium ([3]; 0.34 mmol Gd(III)/kg, 10 min, untreated 330): 135 ms
Blood T1 ([3]; 0.34 mmol Gd(III)/kg, 10 minutes): 100 ms
Image differences between normal and infarcted tissues [4]: marked differences between normal and infarcted tissues; also recorded: greater than that observed in hearts from dogs with infarcts who had not received a contrast enhancement agent
T1 image of blood remaining in the ventricles [4]: much different T1 image
Alteration of renal proton images [5]: Marked alteration of renal medulla and renal cortex proton images
Time to peak effects [5]: ≤ 15 min

[Cl][Mn][Cl] [MnCl2, manganese(II)chloride]
Cumulative 7-Day Mortalities/Number Dosed ([6]; female, 25 mg/kg): 1/5
Average Change in Body Wt. of Survivors ([6]; female, 25 mg/kg): 2.7 g
Cumulative 7-Day Mortalities/Number Dosed ([6]; female, 31.25 mg/kg): 4/5
Average Change in Body Wt. of Survivors ([6]; female, 31.25 mg/kg): 3.5 g
Cumulative 7-Day Mortalities/Number Dosed ([6]; female, 37.5 mg/kg): 4/5
Average Change in Body Wt. of Survivors ([6]; female, 37.5 mg/kg): 3.6 g
Acute intravenous toxicity (in words) [6]: high degree of acute toxicity
Cause of death [6]: cardiac arrest the probable cause of death
Convulsions [6]: Transient convulsions, of moderate severity; also recorded: convulsions the primary pharmacotoxic sign
Time of the one delayed death after dosing [6]: 4 days
LD50 ([6]; 10080 min): 28 mg/kg
LD50 ([6]; listed as 1, 10080 min): 28.0 mg/kg
LD50 expressed as Mn(II) ([6]; mmol/kg of Mn(II), 10080 min): 0.22 mmol/kg
Cumulative 7-Day Mortalities/Number Dosed ([6]; male, 25 mg/kg): 3/5
Average Change in Body Wt. of Survivors ([6]; male, 25 mg/kg): 1.2 g
Cumulative 7-Day Mortalities/Number Dosed ([6]; male, 31.25 mg/kg): 2/5
Average Change in Body Wt. of Survivors ([6]; male, 31.25 mg/kg): 4.6 g
Cumulative 7-Day Mortalities/Number Dosed ([6]; male, 37.5 mg/kg): 4/5
Average Change in Body Wt. of Survivors ([6]; male, 37.5 mg/kg): 3.4 g
Incidence of Ventricular Fibrillation (VF) ([7]; 4 mg): 0/6
Mean % Change in Contractile Force (CF) ([7]; 4 mg, 0-15 S): -5%
Mean % Change in Heart Rate (HR) ([7]; 4 mg, 0-15 S): -2%
Mean % Change in Contractile Force (CF) ([7]; 4 mg, 15-30 S): -28%
Mean % Change in Heart Rate (HR) ([7]; 4 mg, 15-30 S): -2%
Mean % Change in Contractile Force (CF) ([7]; 4 mg, 1 min): -12%
Mean % Change in Heart Rate (HR) ([7]; 4 mg, 1 min): -4%
Mean % Change in Contractile Force (CF) ([7]; 4 mg, 2 min): +5%
Mean % Change in Heart Rate (HR) ([7]; 4 mg, 2 min): -2%
Incidence of Ventricular Fibrillation (VF) ([7]; 8 mg): 0/6
Mean % Change in Contractile Force (CF) ([7]; 8 mg, 0-15 S): -74%
Mean % Change in Heart Rate (HR) ([7]; 8 mg, 0-15 S): -8%
Mean % Change in Contractile Force (CF) ([7]; 8 mg, 15-30 S): -38%
Mean % Change in Heart Rate (HR) ([7]; 8 mg, 15-30 S): -7%
Mean % Change in Contractile Force (CF) ([7]; 8 mg, 1 min): -17%
Mean % Change in Heart Rate (HR) ([7]; 8 mg, 1 min): -7%
Mean % Change in Contractile Force (CF) ([7]; 8 mg, 2 min): +2%
Mean % Change in Heart Rate (HR) ([7]; 8 mg, 2 min): -6%
Incidence of Ventricular Fibrillation (VF) ([7]; 16 mg): 2/6
Mean % Change in Contractile Force (CF) ([7]; 16 mg, 0-15 S): -92%
Mean % Change in Heart Rate (HR) ([7]; 16 mg, 0-15 S): -31%
Mean % Change in Contractile Force (CF) ([7]; 16 mg, 15-30 S): -61%
Mean % Change in Heart Rate (HR) ([7]; 16 mg, 15-30 S): -14%
Mean % Change in Contractile Force (CF) ([7]; 16 mg, 1 min): -37%
Mean % Change in Heart Rate (HR) ([7]; 16 mg, 1 min): -14%
Mean % Change in Contractile Force (CF) ([7]; 16 mg, 2 min): -1%
Mean % Change in Heart Rate (HR) ([7]; 16 mg, 2 min): -11%
Premature ventricular contractions ([7]; 16 mg, hearts which did not fibrillate): two of the four hearts which did not fibrillate had premature ventricular contractions
Incidence of Ventricular Fibrillation (VF) ([7]; 32 mg): 5/6
Mean % Change in Contractile Force (CF) [7, 9]: -100%
Mean % Change in Heart Rate (HR) [7, 9]: -100%
Mean % Change in Contractile Force (CF) ([7]; 32 mg, 15-30 S): -64%
Mean % Change in Heart Rate (HR) ([7]; 32 mg, 15-30 S): -17%
Mean % Change in Contractile Force (CF) ([7]; 32 mg, 1 min): -33%
Mean % Change in Heart Rate (HR) ([7]; 32 mg, 1 min): -17%
Mean % Change in Contractile Force (CF) ([7]; 32 mg, 2 min): +2%
Mean % Change in Heart Rate (HR) ([7]; 32 mg, 2 min): -14%
A-V conduction block ([7]; 32 mg, the single heart which failed to fibrillate): complete A-V conduction block with ventricular standstill
Incidence of arrhythmias (in words) ([7]; 4-32 mg intracoronary): dose-related incidence of arrhythmias
Period of maximal CF and HR effects after injection ([7]; 4-32 mg intracoronary): 0 to 15 s
Arrhythmias at the lower two doses ([7]; 4 and 8 mg): No arrhythmias were observed
Time to return to control or stabilization at new baseline ([7]; CF and HR): two
PR and QRS intervals ([7]; ECG): dose-related increases in PR and QRS intervals
Reversion of VF ([7]; exception: a 32 mg dose): did revert spontaneously to normal sinus rhythm in each instance but one

O=C([O-])CN(CCN(CC(=O)[O-])CC(=O)[O-])CC(=O)[O-].[54Mn+2].[Na+].[Na+] [^54 MnNa2 EDTA]
Radioactivity in fat (in words) ([8]; 2 of 4 rats at 0.5, 2 and 4 hr): Unusually high levels of radioactivity
Localization of remaining radioactivity ([8]; after 48 hr): primarily localized in the bone and marrow
Urinary excretion at later time intervals ([8]; after the initial 2 hr): no additional urinary excretion of radioactivity was observed
Blood clearance at 2 hr (in words) ([8]; by 2 hr after treatment): almost completely cleared from the blood
Blood clearance (in words) ([8]; rat, i.v.): rapidly cleared from the blood
Bone and marrow half-life ([8]; rat, i.v.): > 100 h
Distribution, percent dose/organ (in words) ([8]; rat, i.v.): distributed primarily to the liver, bone with marrow, muscle and kidneys
Fraction associated with rapid first phase hepatic elimination ([8]; rat, i.v.): Approximately 92%
Fraction associated with rapid first phase renal elimination ([8]; rat, i.v.): Approximately 81%
Heart half-life, monophasic elimination ([8]; rat, i.v.): approximately 8 hr
Hepatic t 1/2, initial rapid elimination ([8]; rat, i.v.): < 1 h
Hepatic t 1/2, secondary slow elimination phase ([8]; rat, i.v.): > 17 h
Renal t 1/2, initial rapid elimination ([8]; rat, i.v.): < 1 h
Renal t 1/2, secondary slow elimination phase ([8]; rat, i.v.): > 17 h
Spleen half-life, monophasic elimination ([8]; rat, i.v.): ~ 2 hr
Dose eliminated in the urine ([8]; within 2 hr after treatment): > 50 % of the dose
Total dose excreted in the feces ([8]; within 48 hr after treatment): 31%
